This is an account of results in patent publication US7205305B2, “Inhibitors of p38” (Vertex Pharmaceuticals Incorporated, priority 1996, dated 2007).

For the assay, the target named is activated p38 (Homo sapiens, UniProt Q16539). Kind of assay: Inhibition of phosphorylation of EGF receptor peptide ("kinase"). Format: biochemical. Conditions: inhibition of phosphorylation of EGF receptor peptide by activated p38. How it is done: This assay was carried out in the presence of 10 mM MgCl2, 25 mM β-glycerophosphate, 10% glycerol and 100 mM HEPES buffer at pH 7.6. […] The stock solution was aliquotted into vials. A fixed volume of DMSO or inhibitor in DMSO (final concentration of DMSO in reaction was 5%) was introduced to each vial, mixed and incubated for 15 minutes at room temperature. EGF receptor peptide, […], a phosphoryl acceptor in p38-catalyzed kinase reaction (1), was added to each vial to a final concentration of 200 μM. The kinase reaction was initiated with ATP (100 μM) and the vials were incubated at 30° C. After 30 minutes, the reactions were quenched with equal volume of 10% trifluoroacetic acid (TFA).
The phosphorylated peptide was quantified by HPLC analysis. Separation of phosphorylated peptide from the unphosphorylated peptide was achieved on a reverse phase column (Deltapak, 5 μm, C18 100D, part no. 011795) with a binary gradient of water and acteonitrile, each containing 0.1% TFA.

activated p38, sequence (Q16539 whole entry): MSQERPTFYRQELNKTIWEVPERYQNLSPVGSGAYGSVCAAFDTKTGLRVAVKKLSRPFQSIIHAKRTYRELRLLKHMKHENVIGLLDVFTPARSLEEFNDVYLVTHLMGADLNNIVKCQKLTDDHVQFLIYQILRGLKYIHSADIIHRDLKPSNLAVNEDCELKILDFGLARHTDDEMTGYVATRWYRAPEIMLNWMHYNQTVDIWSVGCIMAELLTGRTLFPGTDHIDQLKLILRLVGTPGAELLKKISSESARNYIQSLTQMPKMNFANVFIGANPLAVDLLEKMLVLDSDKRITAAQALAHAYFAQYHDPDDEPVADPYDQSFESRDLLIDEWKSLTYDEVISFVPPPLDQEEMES

In the case of `COc1ccc(-c2c(=O)ncn3nc(Sc4ccccc4)ccc23)cc1` [Compound 10], the IC50 (usually the concentration needed to halve the response being measured) is ≥ 1000 nM. As for `Nc1ccc(F)c(-c2c(=O)ncn3nc(Sc4ccc(F)cc4)ccc23)c1Cl` [Compound 42], the figure is ≥ 1000 nM.

`O=c1ncn2nc(Sc3ccc(F)cc3Cl)ccc2c1-c1cc2c(cc1Cl)OCO2` [Compound 45]: the IC50 lay within 100 to 1000 nM. Turning to `CN(C)/C=N\c1ccc(-c2c(=O)ncn3nc(Sc4ccc(F)cc4)ccc23)c(Cl)c1` [Compound 50], the IC50 was ≥ 1000 nM. Then `CC(=O)Nc1ccc(-c2c(=O)ncn3nc(Sc4ccc(F)cc4)ccc23)c(Cl)c1` [Compound 51], with 100 to 1000 nM. Then `O=C(CN1CCOCC1)Nc1ccc(-c2c(=O)ncn3nc(Sc4ccc(F)cc4)ccc23)c(Cl)c1` [Compound 52], with 100 to 1000 nM. Then `Nc1cc(F)c(F)cc1SC1=NN2CNC(=O)C(c3c(Cl)cccc3Cl)=C2C=C1` [Compound 119], with 100 to 1000 nM; and `NC(=O)C(c1ccc(Sc2ccccc2)nn1)c1ccc(Cl)cc1Cl` (centres unmarked) [Compound 203], with ≥ 1000 nM.

With `NC(=O)C(c1ccc(F)cc1)c1ccc(Sc2ccccc2)nn1` (centres unmarked) [Compound 204], the IC50 is ≥ 1000 nM. Then `Cc1ccc(Sc2ccc(C(C(N)=O)c3ccc(Cl)cc3Cl)nn2)cc1` (centres unmarked) [Compound 205], with ≥ 1000 nM. As for `NC(=O)C(c1ccc(Sc2ccc(F)cc2Cl)nn1)c1ccc(N)cc1Cl` (centres unmarked) [Compound 207], the figure is ≥ 1000 nM. `NC(=O)C(c1cccc(-c2cccc([N+](=O)[O-])c2)n1)c1c(Cl)cccc1Cl` (centres unmarked) [Compound 308]: the concentration for half-maximal inhibition (IC50) is ≥ 1000 nM.

`CSc1ccc(-c2cccc(C(C(N)=O)c3c(Cl)cccc3Cl)n2)cc1` (centres unmarked) [Compound 314]: the IC50 is ≥ 1000 nM. As for `NC(=O)C(c1cccc(-c2ccc(C(=O)O)cc2)n1)c1c(Cl)cccc1Cl` (centres unmarked) [Compound 315], the figure is ≥ 1000 nM; as for `NC(=O)C(c1cccc(-c2ccc(C=O)cc2)n1)c1c(Cl)cccc1Cl` (centres unmarked) [Compound 316], ≥ 1000 nM. Then `NC(=O)C(c1cccc(-c2ccsc2)n1)c1c(Cl)cccc1Cl` (centres unmarked) [Compound 318], with 100 to 1000 nM; and `NC(=O)C(c1cccc(-c2ccc(C(F)(F)F)cc2)n1)c1c(Cl)cccc1Cl` (centres unmarked) [Compound 319], with ≥ 1000 nM. As for `NC(=O)C(c1cccc(-c2cccc(C=O)c2)n1)c1c(Cl)cccc1Cl` (centres unmarked) [Compound 321], the figure is ≥ 1000 nM.

For `NC(=O)C(c1cccc(-c2ccc(Cl)s2)n1)c1c(Cl)cccc1Cl` (centres unmarked) [Compound 326], the IC50 is ≥ 1000 nM.

`NC(=O)C(c1cccc(-c2ccccc2C=O)n1)c1c(Cl)cccc1Cl` (centres unmarked) [Compound 327] returned an IC50 of 100 to 1000 nM. As for `NC(=O)C(c1cccc(-c2cccc([N+](=O)[O-])c2)n1)c1c(F)cccc1Cl` (centres unmarked) [Compound 328], the figure is ≥ 1000 nM.

As to `NC(=O)C(c1cccc(-c2ccc(Cl)cc2)n1)c1c(F)cccc1Cl` (centres unmarked) [Compound 330], the half-inhibitory concentration (IC50) is ≥ 1000 nM.

With `Cc1ccc(-c2cccc(C(C(N)=O)c3c(F)cccc3Cl)n2)cc1` (centres unmarked) [Compound 331], the half-inhibitory concentration (IC50) is ≥ 1000 nM. As for `CSc1ccc(-c2cccc(C(C(N)=O)c3c(F)cccc3Cl)n2)cc1` (centres unmarked) [Compound 334], the figure is ≥ 1000 nM. Then `NC(=O)C(c1cccc(-c2ccc(C(=O)O)cc2)n1)c1c(F)cccc1Cl` (centres unmarked) [Compound 336], with ≥ 1000 nM; and `NC(=O)C(c1cccc(-c2ccc(C=O)cc2)n1)c1c(F)cccc1Cl` (centres unmarked) [Compound 337], with ≥ 1000 nM; and `NC(=O)C(c1cccc(-c2cccs2)n1)c1c(F)cccc1Cl` (centres unmarked) [Compound 338], with ≥ 1000 nM. In the case of `NC(=O)C(c1cccc(-c2ccsc2)n1)c1c(F)cccc1Cl` (centres unmarked) [Compound 339], the IC50 was ≥ 1000 nM. On to `NC(=O)C(c1cccc(-c2ccc(C(F)(F)F)cc2)n1)c1c(F)cccc1Cl` (centres unmarked) [Compound 340], for which the IC50 was ≥ 1000 nM. As for `NC(=O)C(c1cccc(-c2cccc(C=O)c2)n1)c1c(F)cccc1Cl` (centres unmarked) [Compound 342], the figure is ≥ 1000 nM; as for `COc1cccc(-c2cccc(C(C(N)=O)c3c(F)cccc3Cl)n2)c1` (centres unmarked) [Compound 343], ≥ 1000 nM. For the molecule `NC(=O)C(c1cccc(-c2cccc(F)c2)n1)c1c(F)cccc1Cl` (centres unmarked) [Compound 344], the concentration for half-maximal inhibition (IC50) is ≥ 1000 nM. As for `COc1ccccc1-c1cccc(C(C(N)=O)c2c(F)cccc2Cl)n1` (centres unmarked) [Compound 345], the figure is ≥ 1000 nM; as for `NC(=O)C(c1cccc(-c2ccc(Cl)s2)n1)c1c(F)cccc1Cl` (centres unmarked) [Compound 347], ≥ 1000 nM; as for `NC(=O)C(c1cccc(-c2ccccc2C=O)n1)c1c(F)cccc1Cl` (centres unmarked) [Compound 348], ≥ 1000 nM. Then `NC(=O)C(c1cccc(-c2ccc3ccccc3c2)n1)c1c(Cl)cccc1Cl` (centres unmarked) [Compound 354], with ≥ 1000 nM. Then `NC(=O)C(c1cccc(-c2cc3ccccc3o2)n1)c1c(Cl)cccc1Cl` (centres unmarked) [Compound 355], with ≥ 1000 nM; and `NC(=O)C(c1cccc(-c2cc3ccccc3s2)n1)c1c(Cl)cccc1Cl` (centres unmarked) [Compound 356], with ≥ 1000 nM. As to `NC(=O)C(c1cccc(-c2occc2C=O)n1)c1c(F)cccc1Cl` (centres unmarked) [Compound 357], the half-maximal inhibitory concentration (IC50) was ≥ 1000 nM. As for `NCCNCc1ccccc1-c1cccc(C(C(N)=O)c2c(Cl)cccc2Cl)n1` (centres unmarked) [Compound 359], the figure is ≥ 1000 nM; as for `NC(=O)C(c1cccc(-c2ccccc2CNCC(O)CO)n1)c1c(Cl)cccc1Cl` (centres unmarked) [Compound 360], ≥ 1000 nM; as for `NC(=O)C(c1cccc(-c2ccccc2)n1)c1c(F)cccc1F` (centres unmarked) [Compound 366], ≥ 1000 nM. As for `NC(=O)C(c1cccc(-c2ccccc2C(F)(F)F)n1)c1c(Cl)cccc1Cl` (centres unmarked) [Compound 374], the figure is 100 to 1000 nM. Turning to `NC(=O)C(c1cccc(-c2ccccc2Cl)n1)c1c(Cl)cccc1Cl` (centres unmarked) [Compound 375], the IC50 was ≤ 100 nM. Then `Cc1cccc(-c2cccc(C(C(N)=O)c3c(Cl)cccc3Cl)n2)c1C` (centres unmarked) [Compound 376], with ≤ 100 nM. For the molecule `CCc1ccccc1-c1cccc(C(C(N)=O)c2c(Cl)cccc2Cl)n1` (centres unmarked) [Compound 377], the IC50 is ≤ 100 nM. Then `NC(=O)C(c1cccc(-c2ccccc2CCO)n1)c1c(Cl)cccc1Cl` (centres unmarked) [Compound 378], with ≤ 100 nM; and `NC(=O)C(c1cccc(-c2cccc(C(F)(F)F)c2)n1)c1c(Cl)cccc1Cl` (centres unmarked) [Compound 379], with ≤ 100 nM; and `NC(=O)C(c1cccc(-c2cccc(CO)c2)n1)c1c(Cl)cccc1Cl` (centres unmarked) [Compound 380], with 100 to 1000 nM. As for `Cc1cccc(C)c1C(C(N)=O)c1cccc(-c2ccccc2)n1` (centres unmarked) [Compound 381], the figure is 100 to 1000 nM.

In the case of `NC(=O)C(c1cccc(-c2cccc(Cl)c2Cl)n1)c1c(Cl)cccc1Cl` (centres unmarked) [Compound 382], the IC50 was ≤ 100 nM.

`NC(=O)C(c1cccc(-c2ccccc2F)n1)c1c(Cl)cccc1Cl` (centres unmarked) [Compound 383]: the IC50 was ≤ 100 nM.

Take `NC(=O)C(c1cncc(-c2ccccc2)n1)c1c(Cl)cccc1Cl` (centres unmarked) [Compound 384]: the IC50 is 100 to 1000 nM.

`COCOc1ccccc1-c1cccc(C(C(N)=O)c2c(Cl)cccc2Cl)n1` (centres unmarked) [Compound 385] showed a 50% inhibitory concentration (IC50) of 100 to 1000 nM. For `NC(=O)C(c1cccc(-c2ccccc2O)n1)c1c(Cl)cccc1Cl` (centres unmarked) [Compound 386], the IC50 was ≥ 1000 nM. Then `NC(=O)C(c1cccc(-c2cc(C(F)(F)F)cc(C(F)(F)F)c2)n1)c1c(Cl)cccc1Cl` (centres unmarked) [Compound 387], with ≥ 1000 nM.
